Read-outs that look alike come from different tables or passages of the source.

The conditions of data set [1]: room temperature; reported values; cited from earlier work.
The conditions of data set [2]: Chang and Cook 1983; cited from earlier work.
Data set [3] is classed as physicochemical. The method, then:
Hereinafter, unless specified otherwise the solubility of material is determined in reverse osmosis (RO) water at room temperature. Where the solubility is expressed as “%” it to be understood as number of grams of material soluble in 100 grams of solvent.
The temperature was increased at 1° C. per minute to 121° C. The mixture was maintained at 121° C. for 1 hour and then the temperature was decreased to 80° C., at 1° C. per minute, and the obtained solution was spray dried using YC-015 laboratory spray drier (Shanghai Pilotech Instrument & Equipment Co. Ltd., China) operating at 175° C. inlet and 100° C. outlet temperature. Solution was maintained at 80° C. to prevent premature crystallization.
Solubility were evaluated for Reb A, Reb B, mechanical blends of Reb A and Reb B powders of different ratios, and mixtures of Reb A and Reb B prepared according to process described in EXAMPLE 1.

A short description of data set [4]: Sweetness factor (SF) determination by trained panel in water. The settings on record: for Calculated SF (sweetness factor) / Usage Level, % (concentration corresponding to 5% sucrose equivalent sweetness): in water, 5% SE. The method, then: The sweetness factors for different sweetener from all major groups were measured by tasting several concentrations of each sweetener in water by trained panel. From the sensory test at a, the concentration (%) that corresponds to the 5% sucrose equivalent (SE) sweetness were estimated and listed in Table 2. The sweetness equivalent (SE) of high intensity sweeteners (HIS) varies according to the target sugar equivalent sweetness levels, that are tested as shown in Table 3.

Data set [5] is described as follows: Trained panel evaluation, chocolate milk. The settings on record: sugar-equivalent sweetness around 5.5%. On the procedure:
A series of samples were prepared to having sugar-equivalent sweetness around 5.5%. The control sample was sweetened with 5.5% sugar the test samples were sweetened with different ratios of Reb A/Reb as shown in Table 7 below. The samples were evaluated by a trained panel and screened for overall sweetness, bitterness, astringency, mouth coating, flavor intensity, acidity/tartness, sweet lingering and bitter lingering.

The conditions of data set [6]: cited from earlier work.
Data set [7] is described as follows: Trained panel evaluation, no fat (NF) yogurt. The settings on record: formulas of Table 6. The method, then:
Samples were prepared according to formulas outlined below in Table 6. Samples included a full sugar reference, an aspartame reference, a Reb A control and several test samples with a Reb A/Reb B blends. The samples were evaluated by a trained panel and screened for overall sweetness, bitterness, astringency, mouth coating, flavor intensity, acidity/tartness, sweet lingering and bitter lingering.

Data set [8] can be described thus: Descriptive sensory evaluation of sweetener solutions in water by trained panel. The method, then:
In another embodiment, Stevia sweetener (Reb A, Reb B or blends thereof) solutions were made by completely dissolving Stevia into distilled water. Solutions were tasted and evaluated by a trained panel. […] All solutions were made with different mass ratio of Reb A and Reb Bas shown in FIG. 3 to get the 7% sweetness equivalent. Reb B a mount varied between 20 mg/kg to 150 mg/kg.
All sensory attributes were rated by trained panelists on a scale of zero (0) to ten (10). Samples were presented in a randomized fashion and labeled with three-digit codes.
Sweet Onset—This attribute describes the time at which panelists perceived sweetness upon placing the sample in the mouth. A score of zero indicates immediate identification of sweetness, whereas a score of ten indicates a long delay in the time that sweetness was perceived.
Total Sweetness—This attribute describes the highest intensity of sweetness perceived during tasting. A score of zero indicates no sweetness, while a score of ten indicates very high sweetness.
Bitterness—This attribute describes the highest intensity of bitterness perceived during tasting. A score of zero indicates no bitterness, while a score of ten indicates very high bitterness.
Rounded Sweetness—This attribute describes the duration of sweetness while samples are in the mouth.
Flavor Intensity—This attribute describes the highest intensity of flavor perceived during tasting. A score of zero indicates no flavor, while a score of ten indicates very high flavor.
Astringency—This attribute describes the highest intensity of astringency perceived during tasting. A score of zero indicates no astringency, while a score of ten indicates very high astringency.
Mouth Coating—This attribute describes the highest intensity of sweetness coating perceived while samples are in the mouth.
Sweet Lingering—This attribute describes the highest intensity of sweetness perceived after the sample has been swallowed.
Bitter Lingering—This attribute describes the highest intensity of bitterness perceived after the sample has been swallowed.
Aftertaste Mouth Coating—This attribute describes the highest intensity of sweetness coating perceived after the sample has been swallowed.
Tartness—This attribute describes the highest intensity of tartness perceived during tasting. A score of zero indicates no tartness, while a score of ten indicates very high tartness.
Cooling Sensation—This attribute describes the highest intensity of cooling sensation perceived during tasting. A score of zero indicates no cooling sensation, while a score of ten indicates very high cooling sensation.
Water solution of mogroside (100 ppm) sweetener was tested against solutions made with mogroside (100 ppm)+Reb B (300 ppm) and mogroside (100 ppm)+Reb A/B (Example 3) blend (128 ppm) by a 13 members trained panel.
Water solution of sucralose (40 ppm) was tested against solutions made with sucralose (40 ppm)+Reb B (150 ppm) and sucralose (40 ppm)+Reb A/Reb B (Example 3) blend (68 ppm) by a 13 members trained panel.
Water solution of erythritol (5%) was tested against solutions made with erythritol (5%)+Reb B (50 ppm) and erythritol (5%)+Reb A/Reb B (Example 3) blend (22 ppm) by a 13 members trained panel.
Fructo-oligosaccharide or FOS solution (21%) was tested against solutions made with FOS (21%)+Reb B (150 ppm) and FOS (21%)+Reb A/Reb B (Example 3) blend (68 ppm) by a 13 members trained panel.

The nature of data set [9]: Sugar equivalent sweetness of sweetener/Reb B combinations in plain water, trained panel. The settings on record: Reb B at 50, 150 and 300 ppm with sweeteners of Table 2. On the procedure: In one embodiment, Reb B was combined (at 50, 150 and 300 ppm) with several sweeteners listed in Table 2 to make solutions in plain water. Some of the sweeteners were tested at two different concentrations to obtain around 2% sugar equivalent sweetness without any Reb B. A trained panel conducted sensory tests to determine the effect of the addition of different amounts of Reb B to each sweetener on overall sweetness quality and intensity as shown in Table 4.

A short description of data set [10]: Descriptive sensory evaluation, peppermint mouthwash, 8 panelists. The settings on record: Maltitol 6.44% + Reb B 50 or 150 ppm. The method, then:
A commercial unsweetened (no sugar or sweetener) peppermint mouthwash product (Brand: The Natural Dentist) was used to determine the effect of Reb B with other sweetener, as example maltitol, a sugar alcohol on the sensory profile of mouthwash. Mouthwash samples were sweetened with Maltitol (6.44%), Maltitol+Reb B (50 ppm), Maltitol+Reb B (150 ppm). Descriptive sensory evaluation was conducted with 8 panelists. They evaluated several attributes including sweet onset, total sweetness, bitterness, rounded sweetness, flavor intensity, astringency, mouth coating, sweet lingering, bitter lingering, aftertaste mouth coating, tartness.

The nature of data set [11]: Descriptive sensory evaluation, lime-tequila margarita alcoholic beverage. The settings on record: FOS 21% + Reb B 150 ppm, about 10% alcohol. On the procedure: The Fructo-oligosaccharide (FOS) sweetener and the steviol glycosides compositions (described in EXAMPLE 12) were used for making an alcoholic beverage—lime-tequila margarita drink using Margarita pre-mix from FIS (Flavor International Systems), recommended usage was 0.4%. Prepared Lime Tequila Margarita blank containing about 10% alcohol, no sugar added. To sweeten the beverage, used FOS (21%), FOS+Reb B (150 ppm), and FOS+Reb A/Reb B (68 ppm). Descriptive Sensory evaluation was conducted with 8-13 panelists.

[12] abbreviates: sensory evaluations, Crammer and Ikan 1986.

As for `C=C1C[C@@]23CC[C@H]4[C@@](C)(CCC[C@@]4(C)C(=O)O[C@@H]4O[C@H](CO)[C@@H](O)[C@H](O)[C@H]4O)[C@@H]2CC[C@]1(O[C@@H]1O[C@H](CO)[C@@H](O)[C@H](O[C@@H]2O[C@H](CO)[C@@H](O)[C@H](O)[C@H]2O)[C@H]1O[C@@H]1O[C@H](CO)[C@@H](O)[C@H](O)[C@H]1O)C3` [Reb A, Rebaudioside A], the water solubility in data set [1] is on record as 0.8%; in data set [3], “around 1%”. Further, in data set [2], the “stability in carbonated beverages” value is “heat and pH stability”. In addition, the Sweetness factor in data set [4] (SE level 5.0%) came to 290; in data set [4] (SE level 7.5%), 250; in data set [4] (SE level 10.0%), 200; in [4] (SE level […]) it was 400. Moreover, in data set [4], the “Calculated SF (sweetness factor)” value is reported as 291. The “Usage Level, % (concentration corresponding to 5% sucrose equivalent sweetness)” value in [4] is reported as 0.0172%. For the same molecule, in data set [5], the “sweetness and flavor profile” value is “separate peaks for sweetness, dairy notes, and cocoa notes”. Moreover, in data set [6] (Tanaka 1987, Phillips 1989), the “sensory attributes among major steviol glycosides” value is “the least astringent, the least bitter, and the least persistent aftertaste”. Moreover, the “times sweeter than sucrose” value in [6] (setting [12]) is recorded as 350-450 times. In addition, in data set [7], the acidity result is reported as “enhanced the acidity of the yogurt”. In addition, in data set [7], the bitterness entry is “bitterness at the end”.

As for `C=C1C[C@@]23CC[C@H]4[C@@](C)(CCC[C@@]4(C)C(=O)O)[C@@H]2CC[C@]1(O[C@@H]1O[C@H](CO)[C@@H](O)[C@H](O[C@@H]2O[C@H](CO)[C@@H](O)[C@H](O)[C@H]2O)[C@H]1O[C@@H]1O[C@H](CO)[C@@H](O)[C@H](O)[C@H]1O)C3` [Reb B, Rebaudioside B], the water solubility result in data set [1] is “about 0.1%”. Moreover, the Solubility in water result in data set [3] is “No*”. In addition, in data set [4] (SE level 5.0%), the Sweetness factor worked out at 126. The Sweetness factor in data set [4] (SE level 7.5%) amounted to 95. Further, the Sweetness factor in data set [4] (SE level 10.0%) turned out to be 59. Further, in [4] (SE level […]), the Sweetness factor is given as 146. In addition, in [4], the “Calculated SF (sweetness factor)” value was 126 and the “Usage Level, % (concentration corresponding to 5% sucrose equivalent sweetness)” value is listed as 0.0397%. Also, the “times sweeter than sucrose” value in data set [6] (setting [12]) is given as 300-350 times. Besides, the “sweetness and sweetness profile versus FOS solution” value in data set [8] (FOS 21% + Reb B 150 ppm or Reb A/Reb B 68 ppm) is “significantly higher sweetness and made the sweetness profile rounded”. For the same molecule, the “onset of sweetness, peak sweetness and sweetness lingering versus erythritol solution” value in [8] (water, erythritol 5% + Reb B 50 ppm) was “improved the onset of sweetness and the peak sweetness without increasing the sweetness lingering”. The “taste (sweetness, bitterness, cooling effect) versus erythritol solution” value in [8] (water, erythritol 5% + Reb B 50 ppm or Reb A/Reb B 22 ppm) is “improved the taste of erythritol sample significantly by increasing the sweetness and reducing the bitterness and cooling effect”. For the same molecule, the “taste attributes versus mogroside solution” value in data set [8] (water, mogroside 100 ppm + Reb B 300 ppm or Reb A/B 128 ppm) is “increases sweetness level significantly, improves the onset of sweetness and decreases the bitterness”. For the same molecule, the “onset of sweetness and off taste versus sucralose solution” value in data set [8] (water, sucralose 40 ppm + Reb B 150 ppm) is “improved the onset of sweetness and decreased the off taste slightly”. Moreover, in data set [8] (water, sucralose 40 ppm + Reb B 150 ppm or Reb A/Reb B 68 ppm), the “sweetness level versus sucralose solution” value is on record as “significantly higher sweetness level”. The “effect of addition of Reb B on overall sweetness quality and intensity” value in [9] is “generally increased upfront sweetness, made the sweetness profile rounded and contributed to sweetness lingering at a higher level”. Besides, in [10], the “all other sensory attributes” value is on record as “generally unchanged”; the “sweetness onset and total sweetness” value was “created an earlier sweetness onset, and higher total sweetness”. Also, in data set [11], the “flavor intensity, bitter lingering and tartness” value was “decrease in flavor intensity, bitter lingering, and tartness”; the “sweetness profile of the alcoholic beverage” value is “sweetness onset was earlier in the profile, and there was an increase in total sweetness and the sweetness profile was more rounded”.

Regarding `C=C1C[C@@]23CC[C@H]4[C@@](C)(CCC[C@@]4(C)C(=O)O[C@@H]4O[C@H](CO)[C@@H](O)[C@H](O)[C@H]4O)[C@@H]2CC[C@]1(O[C@@H]1O[C@H](CO)[C@@H](O)[C@H](O)[C@H]1O[C@@H]1O[C@H](CO)[C@@H](O)[C@H](O)[C@H]1O)C3` [stevioside], in data set [2], the “stability in carbonated beverages” value was “heat and pH stability”. In data set [6] (as usually found, literature), the “times sweeter than sucrose” value is given as 110-270 times.
